Key:
Assay in all cases: relative viability (nuclei count vs DMSO), 5 days (fraction); higher = more cells survive
EHT 1864 + Decitabine = compound: C1COCCN1CC2=CC(=O)C(=CO2)OCCCCCSC3=C4C=CC(=CC4=NC=C3)C(F)(F)F [EHT 1864] + Nc1ncn([C@H]2C[C@H](O)[C@@H](CO)O2)c(=O)n1 [Decitabine] (partner 2 µM)
Summary of the method: (§1)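 For relative viability, nuclei counts in treated wells were divided by those in vehicle wells. Lung cancer cell lines had been pin-tool dosed in 1536-well plates the day after seeding and cultured for 5 days, then fixed and stained in one step (final 0.05% Triton X-100, 1% formaldehyde, 1 ug/ml Hoechst) and imaged at 4×. Doses were one drug alone or a fixed anchor-drug dose plus five library-drug doses (not always all listed) in √10 steps, and values are duplicate-plate medians.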

EHT 1864 + Foretinib = compound: C1COCCN1CC2=CC(=O)C(=CO2)OCCCCCSC3=C4C=CC(=CC4=NC=C3)C(F)(F)F [EHT 1864] + COc1cc2c(Oc3ccc(NC(=O)C4(C(=O)Nc5ccc(F)cc5)CC4)cc3F)ccnc2cc1OCCCN1CCOCC1 [Foretinib] (partner 0.25 µM)
Summary of the method: as §1

EHT 1864 + Luminespib = compound: C1COCCN1CC2=CC(=O)C(=CO2)OCCCCCSC3=C4C=CC(=CC4=NC=C3)C(F)(F)F [EHT 1864] + CCNC(=O)c1noc(-c2cc(C(C)C)c(O)cc2O)c1-c1ccc(CN2CCOCC2)cc1 [Luminespib] (partner 0.01 µM)
Summary of the method: as §1

EHT 1864 + Dasatinib = compound: C1COCCN1CC2=CC(=O)C(=CO2)OCCCCCSC3=C4C=CC(=CC4=NC=C3)C(F)(F)F [EHT 1864] + Cc1nc(Nc2ncc(C(=O)Nc3c(C)cccc3Cl)s2)cc(N2CCN(CCO)CC2)n1 [Dasatinib] (partner 0.075 µM)
Summary of the method: as §1

Cell Line | relative viability (EHT 1864 + Decitabine; first compound 0.04 µM) | relative viability (EHT 1864 + Decitabine; first compound 0.4 µM) | relative viability (EHT 1864 + Decitabine; first compound 1.265 µM) | relative viability (EHT 1864 + Decitabine; first compound 4 µM) | relative viability (EHT 1864 + Foretinib; first compound 0.04 µM) | relative viability (EHT 1864 + Foretinib; first compound 0.1265 µM) | relative viability (EHT 1864 + Foretinib; first compound 0.4 µM) | relative viability (EHT 1864 + Foretinib; first compound 1.265 µM) | relative viability (EHT 1864 + Foretinib; first compound 4 µM) | relative viability (EHT 1864 + Luminespib; first compound 0.04 µM) | relative viability (EHT 1864 + Luminespib; first compound 0.1265 µM) | relative viability (EHT 1864 + Luminespib; first compound 0.4 µM) | relative viability (EHT 1864 + Luminespib; first compound 1.265 µM) | relative viability (EHT 1864 + Luminespib; first compound 4 µM) | relative viability (EHT 1864 + Dasatinib; first compound 0.04 µM) | relative viability (EHT 1864 + Dasatinib; first compound 0.1265 µM) | relative viability (EHT 1864 + Dasatinib; first compound 0.4 µM) | relative viability (EHT 1864 + Dasatinib; first compound 1.265 µM) | relative viability (EHT 1864 + Dasatinib; first compound 4 µM) | relative viability (EHT 1864 + Decitabine; first compound 0.1265 µM)
NCI-H441 | 0.246 | 0.241 | 0.234 | 0.241 | 0.953 | 1.03 | 1 | 0.942 | 0.984 | 0.478 | 0.346 | 0.322 | 0.393 | 0.385 | 0.562 | 0.532 | 0.557 | 0.649 | 0.603 | 
NCI-H460 |  | 0.495 | 0.43 | 0.255 | 1 | 0.921 | 1.01 | 1.01 | 0.853 | 0.0334 | 0.0284 | 0.0337 | 0.0326 | 0.0353 | 0.516 | 0.405 | 0.565 | 0.532 | 0.54 | 0.405
NCI-H520 | 0.545 | 0.535 | 0.493 | 0.445 | 0.56 | 0.734 | 0.736 | 0.697 | 0.744 | 0.221 | 0.227 | 0.219 | 0.193 | 0.234 | 0.218 | 0.171 | 0.205 | 0.211 | 0.192 | 0.496
NCI-H596 | 0.937 | 1.14 | 1.09 | 1.24 | 0.836 | 0.701 | 0.752 | 0.745 | 0.821 | 0.953 | 0.986 | 1.03 | 0.972 | 1.05 | 0.701 | 0.592 | 0.533 | 0.554 | 0.664 | 1.05
NCI-H647 | 0.32 | 0.311 | 0.453 | 0.404 | 1.19 | 0.977 | 1.37 | 1.27 | 1.26 | 0.196 | 0.213 | 0.126 | 0.102 | 0.111 | 0.193 | 0.121 | 0.168 | 0.179 | 0.204 | 0.288
NCI-H650 | 0.372 | 0.356 | 0.356 | 0.34 | 0.99 | 0.859 | 0.97 | 1.03 | 0.99 | 0.882 | 0.658 | 0.664 | 0.889 | 0.865 | 0.427 | 0.381 | 0.427 | 0.459 | 0.459 | 0.312
NCI-H661 | 0.609 | 0.581 | 0.576 | 0.514 | 1.03 | 0.956 | 0.993 | 0.986 | 0.817 | 0.951 | 0.838 | 0.877 | 0.77 | 0.565 | 0.883 | 0.828 | 0.919 | 0.8 | 0.725 | 0.527
NCI-H727 | 0.98 | 0.85 | 0.811 | 0.914 | 0.905 | 0.875 | 0.724 | 0.95 | 0.928 | 0.62 | 0.417 | 0.376 | 0.538 | 0.385 | 0.397 | 0.334 | 0.344 | 0.371 | 0.343 | 0.639
NCI-H838 | 0.472 | 0.442 | 0.445 | 0.431 | 0.88 | 0.864 | 1.05 | 0.95 | 1.01 | 0.274 | 0.237 | 0.383 | 0.266 | 0.293 | 0.207 | 0.252 | 0.304 | 0.277 | 0.269 | 0.438
NCI-H1355 | 0.391 | 0.355 | 0.369 | 0.328 | 0.972 | 0.815 | 0.921 | 0.95 | 0.966 | 0.711 | 0.652 | 0.691 | 0.654 | 0.699 | 0.676 | 0.535 | 0.73 | 0.561 | 0.725 | 0.326
NCI-H1395 | 0.722 | 0.709 | 0.657 | 0.673 | 1.03 | 0.924 | 0.897 | 1.02 | 0.859 | 0.605 | 0.688 | 0.648 | 0.76 | 0.673 | 0.48 | 0.386 | 0.426 | 0.418 | 0.407 | 0.676
NCI-H1437 | 0.607 | 0.542 | 0.566 | 0.518 | 1.31 | 1.22 | 1.2 | 1.03 | 0.824 | 1.1 | 1.04 | 1.03 | 0.912 | 0.681 | 0.453 | 0.387 | 0.342 | 0.235 | 0.248 | 0.523
NCI-H1650 | 0.411 | 0.435 | 0.47 | 0.5 |  |  | 1.18 | 0.896 | 0.92 |  |  | 0.203 | 0.201 | 0.198 |  |  | 0.36 | 0.271 | 0.377 | 0.385
NCI-H1651 | 0.55 | 0.631 | 0.652 | 0.594 | 0.836 | 0.757 | 0.845 | 0.691 | 0.827 | 0.694 | 0.907 | 0.803 | 0.704 | 0.57 | 0.407 | 0.425 | 0.332 | 0.37 | 0.471 | 0.695
NCI-H1666 | 0.755 | 0.712 | 0.768 | 0.865 | 0.999 | 0.917 | 0.894 | 0.948 | 0.998 | 1 | 1.03 | 0.877 | 0.993 | 0.968 | 0.86 | 0.805 | 0.746 | 0.745 | 0.795 | 0.742
NCI-H1734 | 0.495 | 0.478 | 0.511 | 0.514 | 0.911 |  | 0.706 | 0.961 | 0.826 | 0.242 |  | 0.222 | 0.182 | 0.179 | 0.497 |  | 0.523 | 0.528 | 0.502 | 0.552

Source: the supplement of paper PMC10307832
